Where a name gives a salt, the structure may show the parent alone. Read-outs that look alike come from different tables or passages of the source.
Experiments:
[1] = molecular target: T1, Ba/F3-KDR-transfected cells (Homo sapiens, UniProt P35968); experiment: Ba/F3-KDR (minus IL3) cellular proliferation assay, Alamar Blue; assay type: cell-based
T1 construct: BAF3-KDR (MIN IL3) pIC50; other: minus IL3
In short: (§1)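 Ba/F3-KDR-transfected cells, 20000 per well in phenol red free RPMI-1640 with 10% FBS, exposed to compound 24 hours at 37° C, 5% CO2; Alamar Blue then added for 4 hours and fluorescence read (ex. 540 nm, em. 590 nm). Plus-IL3 counterscreen run identically with 10 ng/ml murine IL3.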

FGFR1 (h) = FGFR1 (h) (Homo sapiens, UniProt P11362); experiment: FGFR1 (enzymatic assay), TR-FRET; assay type: biochemical; conditions: average values if tested multiple times, read-out: FGFR 1 pIC50 (converted)
Chain of FGFR1 (h) (P11362 22-822): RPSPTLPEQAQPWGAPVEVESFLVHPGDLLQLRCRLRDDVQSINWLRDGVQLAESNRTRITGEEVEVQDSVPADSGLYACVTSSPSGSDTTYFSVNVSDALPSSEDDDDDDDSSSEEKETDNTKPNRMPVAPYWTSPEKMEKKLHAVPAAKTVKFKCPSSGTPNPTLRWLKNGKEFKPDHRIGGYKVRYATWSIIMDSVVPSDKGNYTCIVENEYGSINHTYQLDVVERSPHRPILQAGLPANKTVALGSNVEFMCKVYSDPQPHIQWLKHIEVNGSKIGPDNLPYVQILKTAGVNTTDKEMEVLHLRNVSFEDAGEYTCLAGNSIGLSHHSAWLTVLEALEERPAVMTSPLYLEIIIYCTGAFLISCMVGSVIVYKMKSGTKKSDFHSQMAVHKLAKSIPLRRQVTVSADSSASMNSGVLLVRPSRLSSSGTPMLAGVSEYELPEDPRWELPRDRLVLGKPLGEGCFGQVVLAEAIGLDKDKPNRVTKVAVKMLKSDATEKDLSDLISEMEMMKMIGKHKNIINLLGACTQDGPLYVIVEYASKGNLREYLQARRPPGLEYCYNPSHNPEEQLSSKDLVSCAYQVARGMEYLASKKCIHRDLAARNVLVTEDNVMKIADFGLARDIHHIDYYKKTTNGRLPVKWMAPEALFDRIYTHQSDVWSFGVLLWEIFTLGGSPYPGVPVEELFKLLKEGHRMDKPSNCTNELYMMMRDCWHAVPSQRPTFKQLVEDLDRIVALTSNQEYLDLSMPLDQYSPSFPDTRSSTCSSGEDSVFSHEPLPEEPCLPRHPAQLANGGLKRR

[2] = system: Ba/F3-FGFR3-transfected cells; experiment: Ba/F3-FGFR3 (plus IL3) cellular proliferation assay, counterscreen with 10 ng/ml murine IL3; assay type: cell-based; conditions: read-out: BAF3-FGFR3 (PLUS IL3) pIC50 (converted)
In short: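 Ba/F3 cells transfected with FGFR3, 20000/well in phenol red-free RPMI-1640 with 10% FBS, exposed to compound for 24 h at 37 °C, 5% CO2. Alamar Blue (resazurin) added for 4 h more; fluorescence read at ex 540/em 590 nm. Counterscreen run the same way with 10 ng/ml murine IL3.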

[3] = molecular target: Ba/F3-FGFR4-transfected cells (Homo sapiens, UniProt P22455); experiment: Ba/F3-FGFR4 cellular proliferation assay, Alamar Blue; assay type: cell-based
Chain of Ba/F3-FGFR4-transfected cells (P22455 whole entry, change not shown): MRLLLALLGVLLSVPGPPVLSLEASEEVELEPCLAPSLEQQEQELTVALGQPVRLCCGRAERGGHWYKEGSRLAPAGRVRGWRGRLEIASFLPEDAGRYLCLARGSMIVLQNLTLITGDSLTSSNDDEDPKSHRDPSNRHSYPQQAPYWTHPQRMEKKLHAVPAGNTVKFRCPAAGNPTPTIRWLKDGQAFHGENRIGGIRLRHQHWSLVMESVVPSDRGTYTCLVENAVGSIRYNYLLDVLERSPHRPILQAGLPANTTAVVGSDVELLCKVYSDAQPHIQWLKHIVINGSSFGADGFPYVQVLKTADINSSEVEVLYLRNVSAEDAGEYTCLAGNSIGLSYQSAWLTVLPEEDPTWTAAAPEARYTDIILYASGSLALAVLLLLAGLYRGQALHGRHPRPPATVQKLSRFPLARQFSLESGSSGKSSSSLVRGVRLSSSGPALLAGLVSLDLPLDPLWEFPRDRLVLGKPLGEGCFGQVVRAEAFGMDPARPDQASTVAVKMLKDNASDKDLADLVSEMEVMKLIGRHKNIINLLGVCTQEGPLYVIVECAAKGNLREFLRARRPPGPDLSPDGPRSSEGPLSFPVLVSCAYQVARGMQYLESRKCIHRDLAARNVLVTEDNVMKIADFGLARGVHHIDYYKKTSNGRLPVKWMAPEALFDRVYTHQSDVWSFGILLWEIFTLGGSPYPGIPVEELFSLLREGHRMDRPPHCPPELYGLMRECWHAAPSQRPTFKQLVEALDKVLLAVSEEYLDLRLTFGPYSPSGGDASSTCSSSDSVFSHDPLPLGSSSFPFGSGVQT
In short: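 Ba/F3-FGFR4 cells (20000/well) in phenol red-free RPMI-1640 with 10% FBS are exposed to compound for 24 h at 37 °C, 5% CO2. Alamar Blue (resazurin) is then added for 4 h and fluorescence read at ex 540/em 590 nm.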

[4] = system: Ba/F3-KDR-transfected cells; experiment: Ba/F3-KDR (plus IL3) cellular proliferation assay, counterscreen with 10 ng/ml murine IL3; assay type: cell-based; conditions: read-out: BAF3-KDR (PLUS IL3) pIC50 (converted)
In short: as §1

FGFR2 (h) = FGFR2 (h) (Homo sapiens, UniProt P21802); experiment: FGFR2 (enzymatic assay), TR-FRET; assay type: biochemical; conditions: enzymatic assay; average values if tested multiple times; read-out: FGFR 2 pIC50 (converted)
Chain of FGFR2 (h) (P21802 22-821): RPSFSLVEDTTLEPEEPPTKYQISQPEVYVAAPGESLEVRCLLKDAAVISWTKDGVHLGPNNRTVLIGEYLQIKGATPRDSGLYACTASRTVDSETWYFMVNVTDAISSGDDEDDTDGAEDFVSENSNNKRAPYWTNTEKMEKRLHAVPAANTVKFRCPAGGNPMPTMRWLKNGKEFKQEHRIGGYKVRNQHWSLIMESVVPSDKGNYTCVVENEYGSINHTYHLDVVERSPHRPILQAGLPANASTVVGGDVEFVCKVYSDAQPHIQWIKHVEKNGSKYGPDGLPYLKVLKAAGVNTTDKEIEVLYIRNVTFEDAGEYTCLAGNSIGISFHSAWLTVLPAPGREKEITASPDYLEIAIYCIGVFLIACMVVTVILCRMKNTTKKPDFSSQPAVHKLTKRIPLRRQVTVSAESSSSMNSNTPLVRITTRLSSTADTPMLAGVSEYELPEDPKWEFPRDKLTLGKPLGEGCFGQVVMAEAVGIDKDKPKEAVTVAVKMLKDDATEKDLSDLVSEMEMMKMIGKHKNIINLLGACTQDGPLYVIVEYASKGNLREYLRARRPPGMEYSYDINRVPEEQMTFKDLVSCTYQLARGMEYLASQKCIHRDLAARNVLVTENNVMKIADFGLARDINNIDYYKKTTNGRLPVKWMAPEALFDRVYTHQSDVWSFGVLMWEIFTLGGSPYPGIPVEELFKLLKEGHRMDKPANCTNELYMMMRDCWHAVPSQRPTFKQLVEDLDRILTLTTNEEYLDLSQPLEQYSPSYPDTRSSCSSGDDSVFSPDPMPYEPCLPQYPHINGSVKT
In short: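 Human FGFR2 (150 ng/ml) was incubated with 500 nM Btn-Flt3 substrate and 0.4 μM ATP in 50 mM HEPES pH 7.5, 6 mM MnCl2, 1 mM DTT, 0.1 mM Na3VO4, 0.01% Triton-X-100. Compound was present at 1% DMSO final.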

KDR (h) = KDR (h) (Homo sapiens, UniProt P35968); experiment: KDR (VEGFR2) (enzymatic assay), TR-FRET; assay type: biochemical; conditions: average values if tested multiple times, read-out: VEGFR 2 (KDR) pIC50 (converted)
Chain of KDR (h) (P35968 20-1356): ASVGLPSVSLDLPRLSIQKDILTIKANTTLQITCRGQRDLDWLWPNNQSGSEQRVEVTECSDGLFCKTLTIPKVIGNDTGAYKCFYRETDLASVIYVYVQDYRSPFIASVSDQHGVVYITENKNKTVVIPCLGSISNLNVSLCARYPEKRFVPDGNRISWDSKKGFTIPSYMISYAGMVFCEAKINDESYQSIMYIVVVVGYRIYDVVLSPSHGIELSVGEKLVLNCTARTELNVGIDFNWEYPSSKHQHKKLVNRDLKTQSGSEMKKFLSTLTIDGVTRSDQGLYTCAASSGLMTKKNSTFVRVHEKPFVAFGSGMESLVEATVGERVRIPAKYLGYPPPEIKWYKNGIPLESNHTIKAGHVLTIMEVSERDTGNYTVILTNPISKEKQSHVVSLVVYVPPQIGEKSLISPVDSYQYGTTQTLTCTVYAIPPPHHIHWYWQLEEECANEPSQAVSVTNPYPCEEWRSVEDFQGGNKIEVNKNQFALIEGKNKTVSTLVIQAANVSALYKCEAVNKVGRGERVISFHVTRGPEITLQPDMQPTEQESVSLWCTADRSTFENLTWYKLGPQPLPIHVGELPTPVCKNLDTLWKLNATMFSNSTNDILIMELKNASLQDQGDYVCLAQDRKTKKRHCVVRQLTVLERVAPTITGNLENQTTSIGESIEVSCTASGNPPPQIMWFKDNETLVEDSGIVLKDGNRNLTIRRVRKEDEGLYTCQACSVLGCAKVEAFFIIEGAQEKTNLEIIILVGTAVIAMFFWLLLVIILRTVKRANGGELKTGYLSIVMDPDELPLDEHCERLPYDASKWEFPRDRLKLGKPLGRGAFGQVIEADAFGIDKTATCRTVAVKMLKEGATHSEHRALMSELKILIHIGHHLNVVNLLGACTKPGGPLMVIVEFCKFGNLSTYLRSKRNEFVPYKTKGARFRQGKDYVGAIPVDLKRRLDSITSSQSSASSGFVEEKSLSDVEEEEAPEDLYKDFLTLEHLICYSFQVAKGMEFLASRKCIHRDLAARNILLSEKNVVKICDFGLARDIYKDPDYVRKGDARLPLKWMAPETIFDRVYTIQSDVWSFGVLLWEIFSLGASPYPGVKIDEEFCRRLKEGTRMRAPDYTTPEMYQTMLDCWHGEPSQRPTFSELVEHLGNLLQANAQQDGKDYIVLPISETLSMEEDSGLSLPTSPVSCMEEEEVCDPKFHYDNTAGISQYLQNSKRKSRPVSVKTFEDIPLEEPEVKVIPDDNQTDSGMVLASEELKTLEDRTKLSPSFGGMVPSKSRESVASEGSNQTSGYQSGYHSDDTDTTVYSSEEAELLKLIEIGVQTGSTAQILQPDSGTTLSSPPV
In short: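 Human KDR (150 ng/ml) was reacted with 500 nM Btn-Flt3 and 3 μM ATP in 50 mM HEPES pH 7.5, 6 mM MnCl2, 1 mM DTT, 0.1 mM Na3VO4, 0.01% Triton X-100, 1% DMSO, for 120 min at room temperature. Phosphorylation detected by TR-FRET (Eu-anti-P-Tyr/SA-XL665, 60 min), read in RFU.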

[5] = plus IL3 (10 ng/ml murine IL3, counterscreen)

T1 sequence (P35968 whole entry, change not shown): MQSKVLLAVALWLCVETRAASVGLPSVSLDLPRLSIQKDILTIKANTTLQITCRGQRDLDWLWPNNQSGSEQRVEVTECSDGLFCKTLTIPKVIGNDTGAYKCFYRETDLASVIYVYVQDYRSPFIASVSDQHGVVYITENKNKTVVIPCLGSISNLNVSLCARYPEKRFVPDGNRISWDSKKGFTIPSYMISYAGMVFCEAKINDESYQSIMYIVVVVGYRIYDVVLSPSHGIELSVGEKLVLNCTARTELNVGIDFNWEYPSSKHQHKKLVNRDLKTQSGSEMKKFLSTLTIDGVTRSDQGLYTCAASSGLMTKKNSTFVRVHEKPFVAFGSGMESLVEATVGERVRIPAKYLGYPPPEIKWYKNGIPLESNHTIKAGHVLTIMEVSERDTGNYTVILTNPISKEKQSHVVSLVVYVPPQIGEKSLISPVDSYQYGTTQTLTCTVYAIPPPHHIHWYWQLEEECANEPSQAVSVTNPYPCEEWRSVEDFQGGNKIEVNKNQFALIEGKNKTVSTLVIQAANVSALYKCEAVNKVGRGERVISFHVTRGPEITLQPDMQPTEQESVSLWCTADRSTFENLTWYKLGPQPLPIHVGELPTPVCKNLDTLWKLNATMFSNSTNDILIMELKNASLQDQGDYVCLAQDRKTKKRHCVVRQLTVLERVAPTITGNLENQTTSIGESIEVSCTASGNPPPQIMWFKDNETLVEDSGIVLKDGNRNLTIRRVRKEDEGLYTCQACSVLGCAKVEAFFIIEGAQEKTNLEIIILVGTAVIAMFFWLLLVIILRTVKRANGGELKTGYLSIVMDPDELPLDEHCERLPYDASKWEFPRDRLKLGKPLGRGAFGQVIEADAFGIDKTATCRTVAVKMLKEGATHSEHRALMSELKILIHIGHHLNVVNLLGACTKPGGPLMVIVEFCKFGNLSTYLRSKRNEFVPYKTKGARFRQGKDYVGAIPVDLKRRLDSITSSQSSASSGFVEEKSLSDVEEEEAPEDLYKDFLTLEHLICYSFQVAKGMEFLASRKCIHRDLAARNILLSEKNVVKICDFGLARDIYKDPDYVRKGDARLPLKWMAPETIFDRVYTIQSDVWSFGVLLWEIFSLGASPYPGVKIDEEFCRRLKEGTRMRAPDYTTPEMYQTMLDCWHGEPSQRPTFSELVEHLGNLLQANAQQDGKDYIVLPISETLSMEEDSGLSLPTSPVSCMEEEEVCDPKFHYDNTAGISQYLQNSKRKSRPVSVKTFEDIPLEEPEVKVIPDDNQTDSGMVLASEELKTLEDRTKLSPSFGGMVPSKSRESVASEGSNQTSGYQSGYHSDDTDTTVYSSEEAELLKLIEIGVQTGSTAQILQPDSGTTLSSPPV

SMILES | BAF3-KDR (MIN IL3) pIC50 [1] | IC50 (FGFR1 (h)) [nM] | IC50 [2, 5] [nM] | BAF3-FGFR4 pIC50 [3] | IC50 [4, 5] [nM] | IC50 (FGFR2 (h)) [nM] | IC50 (KDR (h)) [nM] | IC50 [2] [nM] | IC50 [4] [nM]
COc1cc(OC)cc(N(Cc2ncc[nH]2)c2ccc3ncc(-c4cnn(C)c4)nc3n2)c1 (racemic) [24-DL-tartrate salt] | 6.30 | 0.355 | > 10000 | 7.62 | > 10000 | 1.32 | 11.7 |  | 
COc1cc(OC)c(F)c(N(CCCO)c2ccc3ncc(-c4cnn(C)c4)nc3n2)c1F (single isomer, unassigned) [Compound 16] | 6.2 | 10 | > 10000 | 7.7 | > 10000 | 15.8 | 100 |  | 
COc1cc(OC)cc(N(CC(O)C(F)(F)F)c2ccc3ncc(-c4cnn(C)c4)nc3n2)c1 (single isomer, unassigned) [Compound 33] | 5.26 | 0.871 | > 10000 | ~7.03 | > 10000 | 2.04 | 75.9 |  | 
COCC(O)CN(c1ccc2ncc(-c3cnn(C)c3)nc2n1)c1cc(OC)cc(OC)c1F (single isomer, unassigned) [Compound 58] | 5.97 | 1.35 | > 10000 | 7.09 | > 10000 | 1.95 | 34.7 |  | 
COc1cc(OC)c(F)c(N(CC(O)COC(C)C)c2ccc3ncc(-c4cnn(C)c4)nc3n2)c1 (single isomer, unassigned) [Compound 75] | 6.16 | 2.14 | > 10000 | 7.33 | > 10000 | 2.63 | 23.4 |  | 
COc1cc(OC)c(F)c(N(c2ccc3ncc(-c4cnn(C)c4)nc3n2)C(CO)COC(C)C)c1 (single isomer, unassigned) [Compound 76] | <5 | 302 | > 10000 | 5.20 | > 10000 | 468 | > 1000 |  | 
COc1cc(/N=c2\ccc3ncc(-c4cnn(C)c4)nc3n2CC(O)COC(C)C)c(F)c(OC)c1 (single isomer, unassigned) [Compound 77] | 5.33 | 2.69 | > 10000 | 6.46 | > 10000 | 3.16 | 28.8 |  | 
COc1cc(OC)c(Cl)c(/N=c2\ccc3ncc(-c4cnn(C)c4)nc3n2CC2CCC(=O)N2)c1Cl (single isomer, unassigned) [Compound 87] | 5.45 | 4.07 | > 10000 | 5.89 | > 10000 | 6.03 | 117 |  | 
COc1cc(OC)c(Cl)c(N(CC2CCC(=O)N2)c2ccc3ncc(-c4cnn(C)c4)nc3n2)c1Cl (single isomer, unassigned) [Compound 88] | 5.14 | 12.9 | > 10000 | 5.65 | > 10000 | 9.12 | 102 |  | 
COc1ccc(Cl)c(/N=c2\ccc3ncc(-c4cnn(C)c4)nc3n2CC2CCC(=O)N2)c1Cl (single isomer, unassigned) [Compound 89] | <5 | 93.3 | > 10000 | <5 | > 10000 | 70.8 | 339 |  | 
COc1cc(OC)c(F)c(N(CC2COC(=O)N2)c2ccc3ncc(-c4cnn(C)c4)nc3n2)c1 (single isomer, unassigned) [Compound 111] | 5.61 | 1.15 | > 10000 | 7.27 | > 10000 | 2 | 30.9 |  | 
COc1cc(/N=c2\ccc3ncc(-c4cnn(C)c4)nc3n2CC2COC(=O)N2)c(F)c(OC)c1 (single isomer, unassigned) [Compound 112] | 5.65 | 1.26 | > 10000 | 6.67 | > 10000 | 1.66 | 17 |  | 
CNCCN(c1ccc2ncc(-c3cnn(C)c3)nc2n1)c1c(F)c(OC)cc(OC)c1F [Compound 3] | 6.48 | 1.35 | > 10000 | 7.37 | > 10000 | 3.09 | 21.9 |  | 
COc1cc(OC)c(F)c(N(CCNC(C)C)c2ccc3ncc(-c4cnn(C)c4)nc3n2)c1F [Compound 5] | 6.35 | 1.58 | > 10000 | ~8.21 | > 10000 | 3.98 | 79.4 |  | 
COCC(O)CN(c1cc(OC)cc(OC)c1)c1ccc2ncc(-c3cnn(C)c3)nc2n1 (stereo not shown) [Compound 7] | 5.1 | 3.16 | > 10000 | 6.53 | > 10000 | 3.98 | 200 |  | 
COc1cc(OC)c(F)c(N(Cc2ncccn2)c2ccc3ncc(-c4cnn(C)c4)nc3n2)c1 [Compound 9] | 5.95 | 5.62 |  | 6.79 |  | 12.6 | 50.1 | > 10000 | > 10000
COc1cc(OC)c(F)c(N(Cc2cnccn2)c2ccc3ncc(-c4cnn(C)c4)nc3n2)c1F [Compound 10] | 6.2 | 15.8 | > 10000 | 7.57 | > 10000 | 35.5 | 31.6 |  | 
COc1cc(OC)c(F)c(N(CCO)c2ccc3ncc(-c4cnn(C)c4)nc3n2)c1F [Compound 20] | 6.53 | 25.1 | > 10000 | 7.63 | > 10000 | 126 | 316 |  | 
COc1cc(OC)c(F)c(N(Cc2ncc[nH]2)c2ccc3ncc(-c4cnn(C)c4)nc3n2)c1 [Compound 23] | 6.74 | 0.741 | > 10000 | 8.02 | > 10000 | 1.45 | 7.08 |  | 
COc1cc(OC)cc(N(Cc2ncc[nH]2)c2ccc3ncc(-c4cnn(C)c4)nc3n2)c1 [Compound 24] | 6.22 | 0.55 | > 10000 | 7.77 | > 10000 | 1.12 | 10.7 |  | 
COc1cc(OC)cc(N(CC#Cc2ncccc2OC)c2ccc3ncc(-c4cnn(C)c4)nc3n2)c1 [Compound 26] | <5 | 50.1 | > 10000 | <5 | > 10000 | 63.1 | 501 |  | 
Cn1cc(-c2cnc3ccc(N(Cc4ncc[nH]4)c4cc(F)cc(F)c4)nc3n2)cn1 [Compound 27] | <5 | 19.1 | > 10000 | 6.09 | > 10000 | 6.61 | 501 |  | 
COc1cc(OC)c(F)c(N(Cc2cn(S(=O)(=O)N(C)C)cn2)c2ccc3ncc(-c4cnn(C)c4)nc3n2)c1 [Compound 36] | 5.67 | 1.55 | > 10000 | 7.30 | > 10000 | 3.98 | 27.5 |  | 
COc1cc(/N=c2\ccc3ncc(-c4cnn(C)c4)nc3n2CCNC(C)C)c(F)c(OC)c1 [Compound 37] | 6.11 | 1.62 | > 10000 | 6.78 | > 10000 | 4.47 | 45.7 |  | 
CNCCn1/c(=N/c2cc(OC)cc(OC)c2F)ccc2ncc(-c3cnn(C)c3)nc21 [Compound 38] | 5.13 | 2.45 | > 10000 | 5.74 | > 10000 | 4.57 | 74.1 |  | 
